What all share (experiment): DSF assay
Type in all cases: binding
Conditions in all cases: 20 µM compound
(In general: In DSF a fluorescence change marks the thermal transition of the protein.)

One test addresses T1, STK3A (Homo sapiens, UniProt Q13188).
T1 construct: purchased in-house DSF panel (SGC-style construct names; the trailing A/B is a construct suffix)
T1 sequence (Q13188 16-313): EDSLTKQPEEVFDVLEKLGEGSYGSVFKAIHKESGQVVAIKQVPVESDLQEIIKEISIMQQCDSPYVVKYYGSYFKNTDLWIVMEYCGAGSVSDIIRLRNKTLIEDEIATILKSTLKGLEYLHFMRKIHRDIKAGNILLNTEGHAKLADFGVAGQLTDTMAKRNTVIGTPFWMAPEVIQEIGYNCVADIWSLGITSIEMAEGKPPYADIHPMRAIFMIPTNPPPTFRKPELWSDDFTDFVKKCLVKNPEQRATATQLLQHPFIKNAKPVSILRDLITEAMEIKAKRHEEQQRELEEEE

The target in a further test is T2, AURKBA (Homo sapiens, UniProt Q96GD4).
T2 construct: purchased in-house DSF panel (SGC-style construct names; the trailing A/B is a construct suffix)

The target of a further test is T3, DCAMKL1A (Homo sapiens, UniProt O15075).
T3 construct: purchased in-house DSF panel (SGC-style construct names; the trailing A/B is a construct suffix)
T3 sequence (O15075 372-649): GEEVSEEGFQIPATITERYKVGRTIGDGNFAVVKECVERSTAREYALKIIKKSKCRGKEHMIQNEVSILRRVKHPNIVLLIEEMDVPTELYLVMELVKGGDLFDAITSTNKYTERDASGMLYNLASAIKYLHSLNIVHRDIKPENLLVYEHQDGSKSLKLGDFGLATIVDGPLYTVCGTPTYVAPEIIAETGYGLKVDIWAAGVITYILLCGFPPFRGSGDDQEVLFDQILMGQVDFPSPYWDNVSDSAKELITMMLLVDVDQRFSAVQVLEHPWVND

The next test concerns the target T4, AKT3A (Homo sapiens, UniProt Q9Y243).
T4 construct: purchased in-house DSF panel (SGC-style construct names; the trailing A/B is a construct suffix)

A further test has as its target T5, MERTKA (Homo sapiens, UniProt Q12866).
T5 construct: purchased in-house DSF panel (SGC-style construct names; the trailing A/B is a construct suffix)
T5 sequence (Q12866 574-864): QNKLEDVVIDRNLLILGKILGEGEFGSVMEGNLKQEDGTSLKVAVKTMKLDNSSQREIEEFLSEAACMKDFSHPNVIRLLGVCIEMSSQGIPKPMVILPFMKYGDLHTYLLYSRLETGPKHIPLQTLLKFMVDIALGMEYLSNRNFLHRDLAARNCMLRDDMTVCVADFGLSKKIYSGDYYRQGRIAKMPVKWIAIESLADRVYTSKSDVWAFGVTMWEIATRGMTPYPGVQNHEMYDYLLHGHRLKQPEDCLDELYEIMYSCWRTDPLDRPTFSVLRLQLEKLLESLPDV

Another test addresses T6, FGFR2A (Homo sapiens, UniProt P21802).
T6 construct: purchased in-house DSF panel (SGC-style construct names; the trailing A/B is a construct suffix)

A further test concerns the target T7, DAPK1A (Homo sapiens, UniProt P53355).
T7 construct: purchased in-house DSF panel (SGC-style construct names; the trailing A/B is a construct suffix)

Another test concerns the target T8, MAPK14A (Homo sapiens, UniProt Q16539).
T8 construct: purchased in-house DSF panel (SGC-style construct names; the trailing A/B is a construct suffix)

Another test concerns the target T9, OSR1A (Homo sapiens, UniProt O95747).
T9 construct: purchased in-house DSF panel (SGC-style construct names; the trailing A/B is a construct suffix)

For a further test, the target named is T10, PAK1A (Homo sapiens, UniProt Q13153).
T10 construct: purchased in-house DSF panel (SGC-style construct names; the trailing A/B is a construct suffix)

For another test, the target named is T11, TOPKA (Homo sapiens, UniProt Q96KB5).
T11 construct: purchased in-house DSF panel (SGC-style construct names; the trailing A/B is a construct suffix)
T11 sequence (Q96KB5 32-322): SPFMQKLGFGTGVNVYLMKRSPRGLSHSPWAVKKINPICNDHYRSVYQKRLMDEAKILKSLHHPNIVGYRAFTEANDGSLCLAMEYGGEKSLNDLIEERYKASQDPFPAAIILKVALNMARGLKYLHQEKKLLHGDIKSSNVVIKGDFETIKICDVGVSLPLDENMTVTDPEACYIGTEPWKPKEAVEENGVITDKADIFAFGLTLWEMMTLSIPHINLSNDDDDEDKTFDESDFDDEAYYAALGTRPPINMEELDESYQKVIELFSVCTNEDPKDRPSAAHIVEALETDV

Another test deals with BRPF1A.
The target in the next test is T12, PIM3A (Homo sapiens, UniProt Q86V86).
T12 construct: purchased in-house DSF panel (SGC-style construct names; the trailing A/B is a construct suffix)

The next test has as its target T13, BMXA (Homo sapiens, UniProt P51813).
T13 construct: purchased in-house DSF panel (SGC-style construct names; the trailing A/B is a construct suffix)

The next test has as its target T14, CHEK2A (Homo sapiens, UniProt O96017).
T14 construct: purchased in-house DSF panel (SGC-style construct names; the trailing A/B is a construct suffix)

A further test concerns RPS6K5A.

T10 sequence (Q13153 249-545): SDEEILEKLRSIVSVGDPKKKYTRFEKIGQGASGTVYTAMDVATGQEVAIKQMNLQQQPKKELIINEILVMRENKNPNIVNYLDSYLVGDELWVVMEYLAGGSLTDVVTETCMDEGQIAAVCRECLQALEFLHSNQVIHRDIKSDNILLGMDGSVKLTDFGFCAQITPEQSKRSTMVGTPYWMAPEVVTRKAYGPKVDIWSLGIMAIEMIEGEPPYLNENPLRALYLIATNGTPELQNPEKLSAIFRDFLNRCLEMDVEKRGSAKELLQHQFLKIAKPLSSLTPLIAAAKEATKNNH
T13 sequence (P51813 411-675): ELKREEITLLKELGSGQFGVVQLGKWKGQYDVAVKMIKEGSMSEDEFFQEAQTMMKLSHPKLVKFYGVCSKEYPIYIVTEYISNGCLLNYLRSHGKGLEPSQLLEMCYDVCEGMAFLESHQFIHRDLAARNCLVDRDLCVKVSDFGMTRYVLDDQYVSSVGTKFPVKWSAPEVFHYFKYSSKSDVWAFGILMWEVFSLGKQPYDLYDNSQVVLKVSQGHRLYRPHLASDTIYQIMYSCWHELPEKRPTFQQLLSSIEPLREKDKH
T14 sequence (O96017 210-531): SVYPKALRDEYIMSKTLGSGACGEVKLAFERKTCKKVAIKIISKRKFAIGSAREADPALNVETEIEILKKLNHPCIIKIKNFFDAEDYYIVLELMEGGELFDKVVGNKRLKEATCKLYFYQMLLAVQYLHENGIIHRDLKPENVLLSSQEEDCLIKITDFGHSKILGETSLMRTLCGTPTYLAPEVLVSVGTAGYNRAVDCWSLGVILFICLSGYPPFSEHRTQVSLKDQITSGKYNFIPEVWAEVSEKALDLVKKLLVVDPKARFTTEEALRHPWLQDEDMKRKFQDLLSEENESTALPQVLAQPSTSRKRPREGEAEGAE
T8 sequence (Q16539 whole entry): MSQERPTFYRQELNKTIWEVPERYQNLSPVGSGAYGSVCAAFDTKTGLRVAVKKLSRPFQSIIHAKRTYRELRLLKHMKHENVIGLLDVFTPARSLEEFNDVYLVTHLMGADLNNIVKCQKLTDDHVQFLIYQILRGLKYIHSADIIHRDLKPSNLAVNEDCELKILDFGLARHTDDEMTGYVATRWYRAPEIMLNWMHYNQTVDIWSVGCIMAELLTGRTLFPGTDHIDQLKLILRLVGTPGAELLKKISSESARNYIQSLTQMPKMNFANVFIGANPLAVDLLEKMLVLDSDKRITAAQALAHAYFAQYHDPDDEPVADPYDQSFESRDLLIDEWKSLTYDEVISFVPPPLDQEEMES
T7 sequence (P53355 1-285): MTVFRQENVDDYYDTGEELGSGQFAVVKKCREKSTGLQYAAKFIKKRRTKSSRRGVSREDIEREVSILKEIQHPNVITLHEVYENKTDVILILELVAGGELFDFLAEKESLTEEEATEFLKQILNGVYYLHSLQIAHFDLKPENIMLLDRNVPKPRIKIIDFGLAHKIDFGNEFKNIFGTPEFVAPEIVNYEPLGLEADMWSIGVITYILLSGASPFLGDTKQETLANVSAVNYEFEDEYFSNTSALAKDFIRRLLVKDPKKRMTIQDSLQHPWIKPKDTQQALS
T9 sequence (O95747 17-291): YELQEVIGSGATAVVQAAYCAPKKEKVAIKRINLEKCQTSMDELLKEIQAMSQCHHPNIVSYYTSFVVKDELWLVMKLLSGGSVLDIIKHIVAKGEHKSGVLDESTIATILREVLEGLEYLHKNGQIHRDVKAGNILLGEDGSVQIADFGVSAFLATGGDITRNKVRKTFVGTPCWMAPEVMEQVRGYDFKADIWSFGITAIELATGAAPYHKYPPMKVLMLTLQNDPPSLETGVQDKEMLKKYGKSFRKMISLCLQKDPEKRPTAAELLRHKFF
T6 sequence (P21802 458-770): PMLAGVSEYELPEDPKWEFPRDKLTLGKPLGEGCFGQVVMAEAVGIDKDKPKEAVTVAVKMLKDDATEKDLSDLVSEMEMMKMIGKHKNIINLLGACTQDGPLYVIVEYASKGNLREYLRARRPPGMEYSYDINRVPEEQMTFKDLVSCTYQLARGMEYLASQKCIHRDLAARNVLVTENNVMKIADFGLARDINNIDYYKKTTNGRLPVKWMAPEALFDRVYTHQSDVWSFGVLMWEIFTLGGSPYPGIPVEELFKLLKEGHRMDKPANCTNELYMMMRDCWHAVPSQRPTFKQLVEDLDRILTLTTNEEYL
T4 sequence (Q9Y243 141-479): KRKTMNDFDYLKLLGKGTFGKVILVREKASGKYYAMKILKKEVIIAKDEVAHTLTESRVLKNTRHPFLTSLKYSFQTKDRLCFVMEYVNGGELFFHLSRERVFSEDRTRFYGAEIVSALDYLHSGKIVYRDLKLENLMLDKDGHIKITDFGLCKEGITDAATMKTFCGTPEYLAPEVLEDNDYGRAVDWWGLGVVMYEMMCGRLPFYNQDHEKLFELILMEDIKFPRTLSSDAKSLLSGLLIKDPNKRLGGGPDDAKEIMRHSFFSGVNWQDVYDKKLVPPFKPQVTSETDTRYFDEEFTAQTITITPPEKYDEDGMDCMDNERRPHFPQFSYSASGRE
T2 sequence (Q96GD4 whole entry): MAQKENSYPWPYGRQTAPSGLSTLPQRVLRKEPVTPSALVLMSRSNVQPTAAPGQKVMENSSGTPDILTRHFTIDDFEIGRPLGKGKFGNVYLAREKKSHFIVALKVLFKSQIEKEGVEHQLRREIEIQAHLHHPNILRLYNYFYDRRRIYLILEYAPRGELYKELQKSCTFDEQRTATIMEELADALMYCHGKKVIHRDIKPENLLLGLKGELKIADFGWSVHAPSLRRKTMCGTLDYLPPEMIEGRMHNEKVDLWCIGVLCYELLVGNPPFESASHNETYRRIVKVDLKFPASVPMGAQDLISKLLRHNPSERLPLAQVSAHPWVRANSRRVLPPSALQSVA

As for `CC(C)(C)OC(=O)NCCOCCOCCOCCOCCC(=O)N1CCN(c2cc(Nc3cc(C4CC4)[nH]n3)nc(Nc3ccc(CC#N)cc3)n2)CC1` [4-L], the thermal shift (ΔTm) at 20 µM at STK3A turned out to be 8.18 °C; on AURKBA, 12.7 °C; at DCAMKL1A, 0.22 °C; at AKT3A it was 0.51 °C; at MERTKA it was 4.52 °C; at FGFR2A, 7.61 °C. In addition, the ΔTm at 20 µM is 2.7 °C at DAPK1A; 0.05 °C at MAPK14A; 3.71 °C at OSR1A; 0.92 °C at PAK1A; 0.95 °C at TOPKA; -4.95 °C at PIM3A. Moreover, the shift in melting temperature (ΔTm) at 20 µM was 5.53 °C on BMXA and 6.36 °C at CHEK2A. Moreover, the results for the ΔTm with BRPF1A and in the test on RPS6K5A were 1.15 °C and 9.52 °C, respectively.
For the compound `CCOC(=O)c1cc(Nc2cc(C3CC3)[nH]n2)nc(Nc2ccc(CC#N)cc2)n1` [compound 5], the thermal shift (ΔTm) at 20 µM on STK3A came out at 9.87 °C; at AURKBA, 8.24 °C; on DCAMKL1A it was 0.68 °C; at AKT3A, 1.18 °C; at MERTKA it was 2.06 °C; at FGFR2A, 6.36 °C. Also, the ΔTm at 20 µM at DAPK1A is 3.22 °C; at MAPK14A, 0.11 °C; on OSR1A, 3.5 °C; on PAK1A, 1.05 °C; at TOPKA, 2.93 °C; at PIM3A it was -0.28 °C. The thermal shift (ΔTm) at 20 µM at BMXA was 2.01 °C; at CHEK2A, 4.17 °C. The results for the ΔTm in the test on BRPF1A and in the test on RPS6K5A were -0.64 °C and 14.62 °C, respectively.
Take `CC(C)(C)OC(=O)NCCCOCCOCCOCCCNC(=O)c1cc(Nc2cc(C3CC3)[nH]n2)nc(Nc2ccc(CC#N)cc2)n1` [5-L]: the thermal shift (ΔTm) at 20 µM at STK3A is 8.81 °C; on AURKBA, 2.62 °C; on DCAMKL1A, 4.7 °C; on AKT3A, 0.12 °C; on MERTKA it was 2.15 °C; at FGFR2A, 3.37 °C. Further, the thermal shift (ΔTm) at 20 µM was 1.49 °C on DAPK1A; 0.52 °C at MAPK14A; 3.94 °C at OSR1A; -0.24 °C at PAK1A; 1.75 °C on TOPKA; 0.61 °C on PIM3A. For the same compound, the ΔTm at 20 µM at BMXA is 1.62 °C; at CHEK2A, 5.41 °C. The shift in melting temperature (ΔTm) in the test on BRPF1A was -0.68 °C; in the test on RPS6K5A it was 11.21 °C.

What is called ΔTm is the change in melting temperature against a reference sample.

Values taken from paper PMC11851430, “Workflow for E3 Ligase Ligand Validation for PROTAC Development” (ACS Chemical Biology, 2025).
